This note sets out measurements from ChEMBL document CHEMBL3045482, “Synthesis, crystal structure, in vitro acetohydroxyacid synthase inhibition, in vivo herbicidal activity, and 3D-QSAR of new asymmetric aryl disulfides” (J Agric Food Chem, 2012).

In one assay the test system is Brassica rapa subsp. oleifera. Put plainly: Herbicidal activity against Brassica rapa subsp. oleifera assessed as Brassica rapa subsp. oleifera root growth inhibition at 100 mg/L. The conditions noted are these: read-out: GI. The assay is classed as functional.
For `O=[N+]([O-])c1ccccc1SSc1n[nH]c(-c2cccnc2)n1`, the inhibition of growth at 100 µg/mL turned out to be 27.4%.

Turning to `Cc1ccc(-c2nc(SSc3ccccc3[N+](=O)[O-])n[nH]2)cc1`, the inhibition of growth at 100 µg/mL was found to be 0%. On the same count and under the same terms, the value for `c1ccc(SSc2n[nH]c(-c3ccccc3)n2)cc1` was 81.7%; that for `c1ccc2cc(SSc3nc[nH]n3)ccc2c1` was 16.3%; that for `CCOC(=O)c1ccccc1SSc1n[nH]c(C)n1` was 26.6%. Take `COC(=O)c1ccccc1SSc1n[nH]c(-c2ccc(C)cc2)n1`: the inhibition of growth at 100 µg/mL was determined as 44.9%. For `COc1ccc(SSc2n[nH]c(-c3ccncc3)n2)cc1`, the inhibition of growth at 100 µg/mL was found to be 0%. Same read-out and setting: the value for `CCOC(=O)c1ccccc1SSc1n[nH]c(-c2ccccc2)n1` was 34.3%.

Take `Clc1ccc(SSc2n[nH]c(-c3cccnc3)n2)cc1`: the inhibition of growth at 100 µg/mL was 0%. Consider `CCOC(=O)c1ccccc1SSc1n[nH]c(-c2ccc(C)cc2)n1`, for which the inhibition of growth at 100 µg/mL is 0%. As for `c1ccc(SSc2n[nH]c(-c3ccncc3)n2)cc1`, the inhibition of growth at 100 µg/mL was 70.2%. On the same count and under the same terms, the value for `COc1ccc(SSc2n[nH]c(-c3ccccc3)n2)cc1` was 29.4%; that for `COC(=O)c1ccccc1SSc1n[nH]c(-c2cccnc2)n1` was 0%. `Clc1ccc(SSc2n[nH]c(-c3ccncc3)n2)cc1`: the inhibition of growth at 100 µg/mL was 0%.

As for `Fc1ccccc1SSc1nc[nH]n1`, the inhibition of growth at 100 µg/mL stood at 47.2%. `Cc1ccc(SSc2n[nH]c(-c3cccnc3)n2)cc1`: the inhibition of growth at 100 µg/mL came to 0%.

With `COc1ccc(SSc2nc[nH]n2)cc1`, the inhibition of growth at 100 µg/mL is 44.6%. Same read-out and setting: the value for `COC(=O)c1ccccc1S(=O)(=O)NC(=O)Nc1nccc(C)n1` [MONOSULFURON ESTER] was 88.5%.

Consider `O=[N+]([O-])c1ccccc1SSc1nc[nH]n1`, for which the inhibition of growth at 100 µg/mL was found to be 69.8%.

In the case of `O=[N+]([O-])c1ccccc1SSc1n[nH]c(-c2ccncc2)n1`, the inhibition of growth at 100 µg/mL was 0%. Still for that read-out and setting: the value for `O=[N+]([O-])c1ccccc1SSc1n[nH]c(-c2ccccc2)n1` was 0%; that for `Clc1ccc(SSc2nc[nH]n2)cc1` was 50.2%. Same read-out and setting: the value for `Cc1ccc(-c2nc(SSc3ccc(Cl)cc3)n[nH]2)cc1` was 24.1%; that for `Cc1ccc(SSc2nc[nH]n2)cc1` was 67.5%; that for `CCOC(=O)c1ccccc1SSc1nc[nH]n1` was 21.1%. Same read-out and setting: as for `Cc1ccccc1SSc1nc[nH]n1`, the figure is 43.6%; as for `COC(=O)c1ccccc1SSc1n[nH]c(-c2ccccc2)n1`, 52.8%; as for `c1ccc(SSc2n[nH]c(-c3cccnc3)n2)cc1`, 66.2%.

For `COc1ccc(SSc2n[nH]c(C)n2)cc1`, the inhibition of growth at 100 µg/mL came to 28.3%. Regarding `c1ccc(SSc2nc[nH]n2)cc1`, the inhibition of growth at 100 µg/mL was determined as 86.6%. As for `Brc1ccc(SSc2nc[nH]n2)cc1`, the inhibition of growth at 100 µg/mL amounted to 27.4%. The same measure, in the same setting: as for `COC(=O)c1ccccc1SSc1nc[nH]n1`, the figure is 54.8%; as for `Cc1nc(SSc2ccccc2F)n[nH]1`, 13%; as for `Cc1ccc(SSc2n[nH]c(-c3ccncc3)n2)cc1`, 6.9%. Still for that read-out and setting: the value for `CCOC(=O)c1ccccc1SSc1n[nH]c(-c2cccnc2)n1` was 0%; that for `COc1ccc(SSc2n[nH]c(-c3ccc(C)cc3)n2)cc1` was 11%; that for `Cc1ccc(SSc2n[nH]c(-c3ccc(C)cc3)n2)cc1` was 0%.

Turning to `Cc1nc(SSc2ccc3ccccc3c2)n[nH]1`, the inhibition of growth at 100 µg/mL came to 0%. Still for that read-out and setting: as for `COC(=O)c1ccccc1SSc1n[nH]c(C)n1`, the figure is 10.6%. Still for that read-out and setting: the value for `COc1ccc(SSc2n[nH]c(-c3cccnc3)n2)cc1` was 14.3%; that for `Cc1nc(SSc2ccccc2[N+](=O)[O-])n[nH]1` was 59.6%. The same measure, in the same setting: as for `Cc1nc(SSc2ccccc2)n[nH]1`, the figure is 69.4%. On to `Cc1ccc(-c2nc(SSc3ccccc3)n[nH]2)cc1`, for which the inhibition of growth at 100 µg/mL worked out at 54.1%.

Take `Cc1ccc(SSc2n[nH]c(-c3ccccc3)n2)cc1`: the inhibition of growth at 100 µg/mL was determined as 87.5%. On the same count and under the same terms, the value for `CCOC(=O)c1ccccc1SSc1n[nH]c(-c2ccncc2)n1` was 0%. On the same count and under the same terms, the value for `Cc1ccc(SSc2n[nH]c(C)n2)cc1` was 62.5%; that for `COC(=O)c1ccccc1SSc1n[nH]c(-c2ccncc2)n1` was 30.5%. The same measure, in the same setting: as for `Clc1ccc(SSc2n[nH]c(-c3ccccc3)n2)cc1`, the figure is 37.5%. With `Cc1nc(SSc2ccc(Br)cc2)n[nH]1`, the inhibition of growth at 100 µg/mL came out at 17.6%. Turning to `Cc1nc(SSc2ccc(Cl)cc2)n[nH]1`, the inhibition of growth at 100 µg/mL was 24.1%. `Cc1nc(SSc2ccccc2C)n[nH]1`: the inhibition of growth at 100 µg/mL was 36.8%.

Another assay concerns the target Acetolactate synthase, chloroplastic (Arabidopsis thaliana, UniProt P17597, W574L).
Conditions: not given
For the compound `COC(=O)c1ccccc1S(=O)(=O)NC(=O)Nc1nccc(C)n1` [MONOSULFURON ESTER], the Ki – broadly, a dissociation constant, usually derived from enzyme kinetics or from competition with a known ligand – stood at 8.53 µM. This counts as single-digit micromolar. The compound `CC(C)C1(C)N=C(c2nc3ccccc3cc2C(=O)O)NC1=O` (stereo not drawn) [IMAZAQUIN] registered a Ki of 470 µM. The same measure, in the same setting: the value for `Cc1ccc(SSc2nc[nH]n2)cc1` was 25.7 µM.

In turn, `Cc1nc(SSc2ccccc2[N+](=O)[O-])n[nH]1` came in with a Ki of 27.1 µM.

The target in the next assay is T1, Acetolactate synthase, chloroplastic (Arabidopsis thaliana, UniProt P17597).
T1 sequence (P17597 whole entry): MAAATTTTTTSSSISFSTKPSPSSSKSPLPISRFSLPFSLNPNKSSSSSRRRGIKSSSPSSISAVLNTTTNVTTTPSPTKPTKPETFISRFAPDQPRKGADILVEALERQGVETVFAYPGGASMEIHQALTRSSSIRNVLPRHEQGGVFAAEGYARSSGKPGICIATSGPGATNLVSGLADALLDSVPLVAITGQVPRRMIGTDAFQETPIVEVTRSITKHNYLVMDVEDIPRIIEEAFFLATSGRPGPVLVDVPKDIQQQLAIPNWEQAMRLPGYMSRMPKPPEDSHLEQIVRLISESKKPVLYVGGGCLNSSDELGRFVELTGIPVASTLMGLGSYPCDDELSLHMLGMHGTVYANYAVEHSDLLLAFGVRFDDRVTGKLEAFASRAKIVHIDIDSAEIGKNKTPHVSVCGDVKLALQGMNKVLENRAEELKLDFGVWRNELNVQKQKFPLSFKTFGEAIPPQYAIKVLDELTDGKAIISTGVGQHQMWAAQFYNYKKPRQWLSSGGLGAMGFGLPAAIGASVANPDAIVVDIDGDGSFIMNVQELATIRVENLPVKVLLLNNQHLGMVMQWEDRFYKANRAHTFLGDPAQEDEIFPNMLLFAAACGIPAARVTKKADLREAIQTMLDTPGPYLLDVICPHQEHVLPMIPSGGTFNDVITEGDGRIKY
Conditions: not given
For `COC(=O)c1ccccc1S(=O)(=O)NC(=O)Nc1nccc(C)n1` [MONOSULFURON ESTER], the Ki worked out at 0.26 µM. On the same count and under the same terms, the value for `Cc1ccc(SSc2nc[nH]n2)cc1` was 4.69 µM; that for `Cc1nc(SSc2ccccc2[N+](=O)[O-])n[nH]1` was 5.57 µM.
